Values after ≈ are worked out from the molar mass of the structure shown. Numbered stars: 1 amine (or outer) side, 2 acyl side, 3 side chain; on linkers, the order of the positions; unused ones are H or OH. Square brackets hold non-standard residues; d marks the D form. Peptide text beside a SMILES is read from it. * marks the point of attachment. hPhe = N[C@@H](CCc1ccccc1)C(=O)O; Morpholide = C1CN(*)CCO1; CO = O=C([*:1])[*:2]
Experiments:
[1] = Inhibition of Plasmodium falciparum FP2
Plasmodium falciparum [2] = assay: Antimalarial activity against Plasmodium falciparum Dd2 assessed as inhibition of parasite growth; type: functional, organism-based
Plasmodium falciparum [3] = assay: Antimalarial activity against Plasmodium falciparum D6 assessed as inhibition of parasite growth; type: functional, organism-based
[4] = Inhibition of beta-hematin formation; type: physicochemical
Plasmodium falciparum [5] = assay: Antimalarial activity against Plasmodium falciparum W2 assessed as inhibition of parasite growth; type: functional, organism-based
Plasmodium falciparum [6] = assay: Antimalarial activity against Plasmodium falciparum 3D7 assessed as inhibition of parasite growth; type: functional, organism-based
Plasmodium falciparum [7] = assay: Antimalarial activity against chloroquine-resistant Plasmodium falciparum K1 assessed as inhibition of parasite growth; type: functional, organism-based
Plasmodium falciparum [8] = assay: Antimalarial activity against Plasmodium falciparum infected in mouse assessed as mouse survival at 3x10 mg/kg/day, po; type: functional
Plasmodium falciparum [9] = assay: Antimalarial activity against Plasmodium falciparum infected in mouse assessed as suppression of parasitemia at 3x10 mg/kg/day, po measured at day 4 post-infection; type: functional
[10] = Inhibition of Plasmodium falciparum DPAP1 after 30 mins
Plasmodium falciparum [11] = assay: Antimalarial activity against Plasmodium falciparum D10 assessed as inhibition of parasite growth; type: functional, organism-based
Plasmodium falciparum [12] = assay: Antimalarial activity against Plasmodium falciparum NF54 assessed as inhibition of parasite growth; type: functional, organism-based
Plasmodium falciparum [13] = assay: Antimalarial activity against Plasmodium falciparum FcB1; type: functional, organism-based
Plasmodium falciparum [14] = assay: Antimalarial activity against Plasmodium falciparum F32; type: functional, organism-based
Plasmodium berghei = assay: Antimalarial activity against liver stage of Plasmodium berghei; type: functional, organism-based
Plasmodium falciparum [15] = assay: Antimalarial activity against Plasmodium falciparum infected in mouse assessed as cure rate at 26 to 32 mg/kg/day administered po or ip; type: functional

**Q.** For `CC(C)C[C@H](NC(=O)N1CCOCC1)C(=O)N[C@H](C=O)CCc1ccccc1` ({Morpholide-CO}-Leu-[hPhe]-aldehyde), which IC50 [1] is on record?
**A.** 0.0163 µM

**Q.** With `Clc1ccc2c(NCCCN3CCC(NC(c4ccccn4)c4ccccn4)CC3)ccnc2c1` [DM-1157] as the molecule, how does the IC50 (Plasmodium falciparum [2]) read?
**A.** 0.0016 µM

**Q.** And the IC50 (Plasmodium falciparum [3])?
**A.** 0.0009 µM

**Q.** And the IC50 [4]?
**A.** 1.6 µM

**Q.** For `CC(C)C[C@@H](NC(=O)/C=C/c1ccccc1)C(=O)N[C@H](CCc1ccccc1)C(=O)Nc1ccnc2cc(Cl)ccc12`, which IC50 [1] is on record?
**A.** 19.6 µM

**Q.** What does the source list for `CC(C)C[C@H](NC(=O)C1CCC(=O)CC1)C(=O)N[C@H](/C=C/S(=O)(=O)c1ccccc1)CCc1ccccc1`?
**A.** IC50 [1]: 0.0691 µM; IC50 (Plasmodium falciparum [5]): 0.0262 µM; IC50 (Plasmodium falciparum [6]): 0.288 µM

**Q.** For `C[C@@H]1C(=O)C[C@H]2C[C@@H]1OO[C@@]2(C)/C=C\c1ccc(C(F)(F)F)cc1C(F)(F)F` [ARTEFLENE], which IC50 (Plasmodium falciparum [7]) is on record?
**A.** 0.015 µM

**Q.** With `COc1ccc(C[C@H](N)C(=O)N[C@H]2[C@@H](O)[C@H](n3cnc4c(N(C)C)ncnc43)O[C@@H]2CO)cc1` [PUROMYCIN] as the molecule, how does the IC50 (Plasmodium falciparum [5]) read?
**A.** 0.042 µM

**Q.** Which results are given for `CCN(CC)Cc1cc(C2CCC3(CC2)OOC2(OO3)C3CC4CC(C3)CC2C4)ccc1O` (stereo not drawn)?
**A.** IC50 (Plasmodium falciparum [5]): 0.0051 µM; Survival (Plasmodium falciparum [8]): >20 days; inhibition (INH) (Plasmodium falciparum [9]): 99.8%; IC50 (Plasmodium falciparum [7]): 0.0057 µM

**Q.** Which IC50 [1] does the source give for `CC(C)C[C@H](NC(=O)C1CCC2(CC1)OOC1(OO2)C2CC3CC(C2)CC1C3)C(=O)N[C@H](/C=C/S(=O)(=O)c1ccccc1)CCc1ccccc1` (stereo partly drawn) here?
**A.** 1.8 µM

**Q.** And the IC50 (Plasmodium falciparum [5])?
**A.** 0.0185 µM

**Q.** And the IC50 (Plasmodium falciparum [6])?
**A.** 0.0284 µM

**Q.** Which results are given for `CCCCC(C(=O)COc1c(F)c(F)cc(F)c1F)n1cc([C@@](C)(N)C2CCCC2)nn1` (stereo partly drawn)?
**A.** IC50 [10]: 0.07 µM; IC50 (Plasmodium falciparum [11]): 0.0052 µM

**Q.** For `C[C@@H]1CC[C@H]2[C@@H](C)C(=O)O[C@@H]3O[C@@]4(C)CC[C@@H]1[C@]32OO4` [ARTEMISININ], which IC50 (Plasmodium falciparum [7]) is on record?
**A.** 0.047 µM

**Q.** Which IC50 [1] does the source give for `CC(C)CN(NC(=O)C1CCC2(CC1)OOC1(OO2)C2CC3CC(C2)CC1C3)c1nc(C#N)ncc1Br` (stereo not drawn) here?
**A.** 0.0164 µM

**Q.** Which IC50 [1] does the source give for `O=C(NCCNc1ccnc2cc(Cl)ccc12)N/N=C/c1ccc(O)c(CN2CCN(c3ccnc4cc(Cl)ccc34)CC2)c1O` here?
**A.** 3.16 µM

**Q.** For `CC(C)(C[C@H](NC(=O)N1CCOCC1)C(=O)N[C@H](/C=C/S(=O)(=O)c1ccccc1)CCc1ccccc1)OC(=O)OCC[C@@]1(CCC(=O)NCCCN2CCCC2=O)OOC2(O1)C1CC3CC(C1)CC2C3` (stereo partly drawn), which IC50 [1] is on record?
**A.** 50 µM

**Q.** And the IC50 (Plasmodium falciparum [5])?
**A.** 0.6 µM

**Q.** With `CCN(CC)CCCC(C)Nc1ccnc2cc(Cl)ccc12` (stereo not drawn) [CHLOROQUINE] as the molecule, how does the MIC (Plasmodium falciparum [12]) read?
**A.** 0.125 µg/mL (≈ 0.391 µM)

**Q.** What does the source list for `Cc1ccc2c(c1)/C(=N/NC(N)=S)C(=O)N2CCNc1ccnc2cc(Cl)ccc12`?
**A.** IC50 [1]: 11.6 µM; IC50 (Plasmodium falciparum [5]): 0.051 µM; IC50 (Plasmodium falciparum [11]): 0.079 µM

**Q.** With `CC(C)(O)C[C@H](NC(=O)N1CCOCC1)C(=O)N[C@H](/C=C/S(=O)(=O)c1ccccc1)CCc1ccccc1` as the molecule, how does the IC50 [1] read?
**A.** 1.02 µM

**Q.** What about the IC50 (Plasmodium falciparum [5]) of the same molecule?
**A.** 0.18 µM

**Q.** With `COc1ccc(C[C@H](NC(=O)OC2CCCC3(C2)OOC2(O3)C3CC4CC(C3)CC2C4)C(=O)N[C@H]2[C@@H](O)[C@H](n3cnc4c(N(C)C)ncnc43)O[C@@H]2CO)cc1` (stereo partly drawn) as the molecule, how does the IC50 (Plasmodium falciparum [5]) read?
**A.** 0.01 µM

**Q.** What does the source list for `COc1ccc2nccc([C@@H](O)[C@@H]3C[C@@H]4CCN3C[C@@H]4CC(=O)O[C@@H]3O[C@@H]4O[C@@]5(C)CC[C@H]6[C@H](C)CC[C@@H]([C@H]3C)[C@@]46OO5)c2c1`?
**A.** IC50 (Plasmodium falciparum [6]): 0.00895 µM; IC50 (Plasmodium falciparum [13]): 0.00959 µM

**Q.** Which MIC (Plasmodium falciparum [12]) does the source give for `COc1ccc2nc3cc(Cl)ccc3c(Nc3cccc(Nc4ccnc5cc(Cl)ccc45)c3)c2c1` here?
**A.** 0.25 µg/mL (≈ 0.489 µM)

**Q.** What does the source list for `C[C@@H]1CC[C@H]2C(CN3CCCCC3[C@H](O)c3cc(C(F)(F)F)nc4c(C(F)(F)F)cccc34)=C(C(F)(F)F)O[C@@H]3O[C@@]4(C)CC[C@@H]1[C@]32OO4` (stereo partly drawn)?
**A.** IC50 (Plasmodium falciparum [13]): 0.0172 µM; IC50 (Plasmodium falciparum [14]): 0.0157 µM; IC50 (Plasmodium falciparum [7]): 0.0106 µM

**Q.** For `COc1cc(NC(C)CCCNc2ccnc3cc(Cl)ccc23)c2ncccc2c1` (stereo not drawn), which IC50 (Plasmodium falciparum [2]) is on record?
**A.** 0.58 µM

**Q.** And the IC50 (Plasmodium falciparum [6])?
**A.** 0.64 µM

**Q.** With `CC(C)CN(NC(=O)C1CCC(=O)CC1)c1nc(C#N)ncc1Br` as the molecule, how does the IC50 [1] read?
**A.** 0.0584 µM

**Q.** What does the source list for `COc1cc(NC(C)CCCNC(=O)c2ccc(CO[C@H]3O[C@@H]4O[C@@]5(C)CC[C@H]6[C@H](C)CC[C@@H]([C@H]3C)[C@@]46OO5)cc2)c2ncccc2c1` (stereo partly drawn)?
**A.** IC50 (Plasmodium falciparum [5]): 0.0051 µM; IC50 (Plasmodium berghei): 0.067 µM

**Q.** Which results are given for `CCCCC(C(=O)COc1c(F)c(F)cc(F)c1F)n1cc([C@@](C)(NC(=O)OCC[C@@]2(CCC(=O)NCCCN3CCCC3=O)OOC3(O2)C2CC4CC(C2)CC3C4)C2CCCC2)nn1` (stereo partly drawn)?
**A.** IC50 [10]: 10 µM; IC50 (Plasmodium falciparum [11]): 0.004 µM

**Q.** Which IC50 [1] does the source give for `CC(C)C[C@H](NC(=O)N1CCOCC1)C(=O)N[C@@H](CCc1ccccc1)[C@@H]1OOC2(O1)C1CC3CC(C1)CC2C3` (stereo partly drawn) here?
**A.** 0.51 µM

**Q.** What about the IC50 (Plasmodium falciparum [6]) of the same molecule?
**A.** 0.0353 µM

**Q.** Which IC50 [1] does the source give for `CC(C)C[C@H](NC(=O)c1ccc(CO[C@H]2O[C@@H]3O[C@@]4(C)CC[C@H]5[C@H](C)CC[C@@H]([C@H]2C)[C@@]35OO4)cc1)C(=O)N[C@H](/C=C/S(C)(=O)=O)CCc1ccccc1` here?
**A.** 3.5 µM

**Q.** For `C[C@H]1[C@H](OCCNCCNc2ccnc3cc(Cl)ccc23)O[C@@H]2O[C@@]3(C)CC[C@H]4[C@H](C)CC[C@@H]1[C@@]24OO3`, which IC50 (Plasmodium falciparum [2]) is on record?
**A.** 0.0257 µM

**Q.** What about the IC50 (Plasmodium falciparum [6]) of the same molecule?
**A.** 0.0205 µM

**Q.** What about the IC50 (Plasmodium falciparum [11]) of the same molecule?
**A.** 0.0215 µM

**Q.** With `CC1(C)COC2(CCC(NC3CCC(Nc4ccnc5cc(Cl)ccc45)CC3)CC2)OO1` (stereo not drawn) as the molecule, how does the IC50 (Plasmodium falciparum [5]) read?
**A.** 0.015 µM

**Q.** What about the Activity (Plasmodium falciparum [15]) of the same molecule?
**A.** 100%

**Q.** What about the IC50 (Plasmodium falciparum [13]) of the same molecule?
**A.** 0.024 µM

**Q.** What about the IC50 (Plasmodium falciparum [14]) of the same molecule?
**A.** 0.013 µM

**Q.** Which IC50 (Plasmodium falciparum [5]) does the source give for `COc1cc(NC(C)CCCNC2CCC3(CC2)OOC2(OO3)C3CC4CC(C3)CC2C4)c2ncccc2c1` (stereo not drawn) here?
**A.** 0.022 µM

**Q.** And the IC50 (Plasmodium berghei)?
**A.** 0.33 µM

**Q.** Which IC50 (Plasmodium falciparum [12]) does the source give for `Clc1ccc2c(NCCNC(CCN3CCCCC3)c3ccccc3)ccnc2c1` (stereo not drawn) here?
**A.** 0.0071 µM

**Q.** For `CC(=O)O[C@@]1(C)CC[C@@H]2C[C@@H]1OO[C@]2(/C=C\c1ccc(Cl)cc1)c1ccccc1`, which IC50 (Plasmodium falciparum [7]) is on record?
**A.** 0.023 µM

Reference: ChEMBL document CHEMBL3600290, “From hybrid compounds to targeted drug delivery in antimalarial therapy” (Bioorg Med Chem, 2015)
